Assay results published in paper PMC2726771 (The Journal of neuroscience : the official journal of the …, 2009).
Where “and” joins values, the source holds several entries; their conditions need not be identical. Equal entries are not always repeated. Where two headings read alike, the source gives them in different places.

Columns and labels:
[1] = target: α3β2T150C nAChR (Rattus norvegicus, UniProt P04757+P12390, T176C); format: cell-based; settings: for reduction of maximum Mor-evoked current (efficacy) / decrease of Mor potency: after 100 μM reagent; for potentiation (IACh+Mor/IACh), sample traces Fig. 2: 300 μM ACh + 10 μM Mor; for potentiation: 10 μM Mor
[2] = target: T1, α3β2 wt nAChR (Rattus norvegicus, UniProt P04757+P12390); format: cell-based
[3] = target: α3T115Cβ2 nAChR (Rattus norvegicus, UniProt P04757+P12390, T142C); format: cell-based; settings: for potentiation (IACh+Mor/IACh), sample traces Fig. 2: 300 μM ACh + 10 μM Mor; for time constant τ of MTSET modification: response to 300 μM ACh + 10 μM Mor
[4] = target: α3β2S148C nAChR (Rattus norvegicus, UniProt P04757+P12390, S174C); format: cell-based
[5] = target: α3β2S192C nAChR (Rattus norvegicus, UniProt P04757+P12390, S218C); format: cell-based
[6] = target: α3β2T193C nAChR (Rattus norvegicus, UniProt P04757+P12390, T219C); format: cell-based
[7] = target: α3A106Cβ2 nAChR (Rattus norvegicus, UniProt P04757+P12390, A133C); format: cell-based
[8] = target: α3S161Cβ2 nAChR (Rattus norvegicus, UniProt P04757+P12390, S188C); format: cell-based
[9] = target: T1, α3β2 wt nAChR; settings: ref Wu et al., 2008, cited from earlier work
[10] = system: α3E113R; settings: ref Laureijs and Levandoski, unpublished; cited from earlier work
[11] = 100 μM MTSET co-applied with ACh, 2 min
[12] = after 2-min 100 μM MTSET co-applied with ACh
[13] = 100 μM MTSET applied alone, 2 min
[14] = relative to response to ACh alone at [ACh] ~ EC50
[15] = 100 μM MTSET + 200 μM ACh treatment, ACh + 10 μM Mor
[16] = 100 μM MTSET + 200 μM ACh, four 30-sec

α3T115Cβ2 nAChR, sequence (P04757 26-499 T142C): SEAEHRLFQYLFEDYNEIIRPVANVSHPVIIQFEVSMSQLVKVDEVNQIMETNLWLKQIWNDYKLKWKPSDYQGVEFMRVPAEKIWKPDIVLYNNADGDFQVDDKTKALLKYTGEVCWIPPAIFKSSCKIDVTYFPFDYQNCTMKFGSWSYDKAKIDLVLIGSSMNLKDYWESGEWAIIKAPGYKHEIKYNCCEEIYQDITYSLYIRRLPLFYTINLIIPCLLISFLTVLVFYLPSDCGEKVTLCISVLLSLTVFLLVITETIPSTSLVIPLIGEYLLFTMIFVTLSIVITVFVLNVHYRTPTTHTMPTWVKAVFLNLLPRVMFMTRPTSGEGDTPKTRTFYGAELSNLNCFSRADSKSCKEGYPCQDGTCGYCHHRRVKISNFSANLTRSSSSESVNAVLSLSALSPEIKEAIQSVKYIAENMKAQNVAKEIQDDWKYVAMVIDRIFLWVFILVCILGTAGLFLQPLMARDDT
α3T115Cβ2 nAChR, sequence (P12390 25-500): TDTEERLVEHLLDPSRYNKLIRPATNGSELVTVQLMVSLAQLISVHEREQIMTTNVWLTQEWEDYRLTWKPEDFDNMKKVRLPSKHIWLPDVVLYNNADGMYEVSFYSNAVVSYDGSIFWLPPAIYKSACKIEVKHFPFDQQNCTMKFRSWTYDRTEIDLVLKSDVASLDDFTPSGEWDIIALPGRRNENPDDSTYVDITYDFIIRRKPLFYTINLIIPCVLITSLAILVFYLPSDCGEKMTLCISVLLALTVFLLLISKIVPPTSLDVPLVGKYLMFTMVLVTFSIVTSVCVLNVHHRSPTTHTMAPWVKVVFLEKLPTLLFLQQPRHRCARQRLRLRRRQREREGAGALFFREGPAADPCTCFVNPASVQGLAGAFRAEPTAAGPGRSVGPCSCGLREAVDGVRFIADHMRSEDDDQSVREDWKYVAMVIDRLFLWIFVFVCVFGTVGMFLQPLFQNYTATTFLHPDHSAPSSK
T1 sequence (P04757 26-499): as the sequence (P04757 26-499 T142C) above, with C117T counted along it
T1 sequence (P12390 25-500): as the sequence (P12390 25-500) above
α3β2T150C nAChR, sequence (P04757 26-499): as the sequence (P04757 26-499 T142C) above, with C117T counted along it
α3β2T150C nAChR, sequence (P12390 25-500 T176C): as the sequence (P12390 25-500) above, with T152C counted along it
α3β2S192C nAChR, sequence (P04757 26-499): as the sequence (P04757 26-499 T142C) above, with C117T counted along it
α3β2S192C nAChR, sequence (P12390 25-500 S218C): as the sequence (P12390 25-500) above, with S194C counted along it
α3β2T193C nAChR, sequence (P04757 26-499): as the sequence (P04757 26-499 T142C) above, with C117T counted along it
α3β2T193C nAChR, sequence (P12390 25-500 T219C): as the sequence (P12390 25-500) above, with T195C counted along it
α3β2S148C nAChR, sequence (P04757 26-499): as the sequence (P04757 26-499 T142C) above, with C117T counted along it
α3β2S148C nAChR, sequence (P12390 25-500 S174C): as the sequence (P12390 25-500) above, with S150C counted along it
α3A106Cβ2 nAChR, sequence (P04757 26-499 A133C): as the sequence (P04757 26-499 T142C) above, with A108C, C117T counted along it
α3A106Cβ2 nAChR, sequence (P12390 25-500): as the sequence (P12390 25-500) above
α3S161Cβ2 nAChR, sequence (P04757 26-499 S188C): as the sequence (P04757 26-499 T142C) above, with C117T, S163C counted along it
α3S161Cβ2 nAChR, sequence (P12390 25-500, stated change not applied): as the sequence (P12390 25-500) above

C[N+](C)(C)CCOC(=O)CBr [BrACh]
reduction of maximum Mor-evoked current (efficacy) ([1]; four 30-sec doses): very little effect

Cc1ccsc1C=CC1=NCCCN1C.O=C(O)C(O)C(O)C(=O)O [Mor, 1,4,5,6-tetrahydro-1-methyl-2-(2-[3-methyl-2-thienyl]ethenyl)pyrimidine, tartrate salt]
Mor Potentiation % Change after MTS [2, 11]: 3 ± 3% | Mor Potentiation IACh+Mor/IACh ([2]; [ACh] ~ EC50 ± 10 μM Mor): 1.9 ± 0.1 | potentiation (IACh+Mor/IACh), sample traces Fig. 2 ([2]; pre-MTSET, 100 μM ACh + 10 μM Mor): 2.8 | EC50 [3]: 30 µM | potentiation IACh+Mor/I30 μM ACh ([3]; 30 μM ACh (~EC20)): 7.7 | potentiation post/pre ([3]; 50 μM Mor included with the MTSET/300 μM ACh co-application): 1.05 ± 0.07 | Mor Potentiation % Change after MTS ([3]; 100 μM MTSET co-applied with ACh (300 μM), 2 min): * -30 ± 4% | potentiation IACh+Mor/I300 μM ACh ([3]; 300 μM ACh (~EC50)): 2.2 | Mor-evoked Response nH ([3]; Hill coefficient, pre MTSET in Fig. 8): 1.4 ± 0.1 | Mor Potentiation IACh+Mor/IACh ([3]; [ACh] ~ EC50 ± 10 μM Mor): 2.3 ± 0.3 | Mor nH post MTSET ([3]; after 100 μM MTSET alone, four 30-sec doses): 2.2 ± 1.4 | Mor Emax post MTSET ([3]; after 100 μM MTSET alone, normalized to 300 μM ACh before modification): 0.1 and 0.10 ± 0.01 | potentiation (IACh+Mor/IACh), sample traces Fig. 2 [3, 12]: 2.8 | potentiation (IACh+Mor/IACh), sample traces Fig. 2 ([3]; pre-MTSET): 4.5 | Mor-evoked Response Emax ([3]; relative to response to ACh alone at [ACh] ~ EC50 (300 μM), pre MTSET in Fig. 8): 0.3 and 0.29 ± 0.01 | Mor Potentiation % Change after MTS [1, 13]: * 52 ± 17% | Mor-evoked Response nH ([1]; Hill coefficient): 2.3 ± 0.2 | EC50 ([1]; Mor EC50, Control, pre-treatment control, Fig. 7): 20 ± 2 µM | EC50 ([1]; Mor EC50 after BrACh, after 100 μM BrACh, four 30-sec doses): 30 ± 5 µM | EC50 ([1]; Mor EC50 after MTSBn, after 100 μM MTSBn, four 30-sec doses): 80 ± 20 µM | EC50 ([1]; Mor EC50 after MTSEA, after 100 μM MTSEA, four 30-sec doses): 30 ± 1 µM | EC50 ([1]; Mor EC50 after MTSET, after 100 μM MTSET, four 30-sec doses): 20 ± 4 µM | EC50 ([1]; Mor-evoked Response EC50, Mor as agonist): 26 ± 1 µM | Mor Potentiation IACh+Mor/IACh ([1]; [ACh] ~ EC50 ± 10 μM Mor): 1.6 ± 0.1 | Mor nH after BrACh ([1]; after 100 μM BrACh): 1.5 ± 0.4 | Mor Emax after BrACh ([1]; after 100 μM BrACh, normalized to pre-treatment 300 μM Mor response): 0.96 ± 0.07 | Mor nH after MTSBn ([1]; after 100 μM MTSBn): 2.7 ± 1.5 | Mor Emax after MTSBn ([1]; after 100 μM MTSBn, normalized to pre-treatment 300 μM Mor response): 0.56 ± 0.07 | Mor nH after MTSEA ([1]; after 100 μM MTSEA): 2.3 ± 0.3 | Mor Emax after MTSEA ([1]; after 100 μM MTSEA, normalized to pre-treatment 300 μM Mor response): 0.20 ± 0.01 | Mor nH after MTSET ([1]; after 100 μM MTSET): 3.4 ± 1.9 | Mor Emax after MTSET ([1]; after 100 μM MTSET, normalized to pre-treatment 300 μM Mor response): 0.24 ± 0.02 | potentiation (IACh+Mor/IACh), sample traces Fig. 2 [1, 12]: 7.5 | potentiation ([1]; measured at ~EC50 ACh, after MTSET treatment): 4.0 | potentiation ([1]; measured at ~EC50 ACh, before MTSET treatment): 1.6 | potentiation ([1]; measured at ~EC75 ACh, after MTSET treatment): 3.0 | potentiation ([1]; measured at ~EC75 ACh, before MTSET treatment): 1.5 | Mor Emax, Control ([1]; normalized to pre-treatment 300 μM Mor response): 1.00 | potentiation (IACh+Mor/IACh), sample traces Fig. 2 ([1]; pre-MTSET): 3.3 | I300 μM Mor/I300 μM ACh (pre) ([1]; pre-treatment): 0.14 ± 0.01 | Mor nH, Control ([1]; pre-treatment control, Fig. 7): 2.2 ± 0.4 | Mor-evoked Response Emax [1, 14]: 0.33 ± 0.04 | EC50 [4]: 110 ± 40 µM | Mor Potentiation % Change after MTS [4, 13]: -7 ± 10% | Mor-evoked Response nH ([4]; Hill coefficient): 1.4 ± 0.5 | Mor Potentiation IACh+Mor/IACh ([4]; [ACh] ~ EC50 ± 10 μM Mor): 4.9 ± 1.0 | Mor-evoked Response Emax [4, 14]: 0.36 ± 0.05 | EC50 [5]: 20 ± 6 µM | change in Mor potentiation after MTSET alone ([5]; 100 μM MTSET alone, four 30-sec doses, 30 μM ACh): no change in potentiation outside of error | Mor-evoked Response nH ([5]; Hill coefficient): 1.8 ± 0.7 | Mor Potentiation IACh+Mor/IACh ([5]; [ACh] ~ EC50 ± 10 μM Mor): 1.4 ± 0.1 | Mor-evoked Response Emax [5, 14]: 0.08 ± 0.01 | EC50 [6]: 20 ± 3 µM | Mor Potentiation % Change after MTS [6, 11]: 2 ± 4% | Mor-evoked Response nH ([6]; Hill coefficient): 1.7 ± 0.3 | Mor Potentiation IACh+Mor/IACh ([6]; [ACh] ~ EC50 ± 10 μM Mor): 1.5 ± 0.1 | Mor-evoked Response Emax [6, 14]: 0.24 ± 0.1 | EC50 [7]: 62 ± 11 µM | change in Mor potentiation after MTSET alone ([7]; 100 μM MTSET alone, four 30-sec doses, 100 μM ACh): no change in potentiation outside of error | Mor-evoked Response nH ([7]; Hill coefficient): 2.1 ± 0.7 | Mor Potentiation IACh+Mor/IACh ([7]; [ACh] ~ EC50 ± 10 μM Mor): 1.7 ± 0.2 | Mor-evoked Response Emax [7, 14]: 0.56 ± 0.05 | Mor Potentiation % Change after MTS [8, 13]: 3 ± 8% | Mor Potentiation IACh+Mor/IACh ([8]; [ACh] ~ EC50 ± 10 μM Mor): 1.3 ± 0.1 | Mor-evoked Response nH ([9]; Hill coefficient): 3.1 ± 1.6 | Mor-evoked Response Emax [9, 14]: 0.2 | Mor potentiation [10]: completely abolishes Mor potentiation

CC(=O)OCC[N+](C)(C)C [ACh]
ACh Response nH ([2]; Hill coefficient): 0.82 ± 0.06 | ACh Response nH ([3]; Hill coefficient): 0.96 ± 0.09 | ACh nH, +Mor data set, pre-treatment ([1]; ACh + 10 μM Mor): 1.13 ± 0.24 | ACh nH, +Mor data set, post-treatment ([1]; ACh + 10 μM Mor, after 100 μM MTSET + 200 μM ACh): 0.98 ± 0.02 | ACh Emax, +Mor data set, pre-treatment ([1]; ACh + 10 μM Mor, normalized to ACh response at 1000 μM): 1.33 ± 0.05 | ACh Response nH ([1]; Hill coefficient, pre-treatment in Fig. 4): 0.84 ± 0.06 | ACh nH post-treatment ([1]; after 100 μM MTSET + 200 μM ACh): 0.79 ± 0.11 | ACh Emax post-treatment ([1]; after 100 μM MTSET + 200 μM ACh, normalized to ACh response at 1000 μM): 0.26 ± 0.01 | ACh Emax pre-treatment ([1]; normalized to ACh response at 1000 μM): 1.00 | ACh Response nH ([4]; Hill coefficient): 0.79 ± 0.08 | ACh Response nH ([5]; Hill coefficient): 0.57 ± 0.05 | ACh Response nH ([6]; Hill coefficient): 0.74 ± 0.07 | ACh Response nH ([7]; Hill coefficient): 0.64 ± 0.04 | ACh Response nH ([8]; Hill coefficient): 0.77 ± 0.07

CS(=O)(=O)SCc1ccccc1 [MTSBn, benzylmethanethiosulfonate]
potentiation post/pre ([3]; after 100 μM MTS reagent alone): 0.99 ± 0.10 | reduction of ACh-evoked currents ([3]; after 100 μM MTS reagent alone): 29 ± 9% | reduction of ACh/Mor-evoked currents ([3]; after 100 μM MTS reagent alone): 30 ± 10% | decrease of Mor potency ([1]; four 30-sec doses): 4 fold | reduction of maximum Mor-evoked current (efficacy) ([1]; four 30-sec doses): 45%

C[N+](C)(C)CCSS(C)(=O)=O.[Br-] [MTSET, [2-(trimethyl-ammonium)ethyl]methanesthiosulfonate bromide]
time constant τ of MTSET modification ([3]; 30 μM MTSET alone): 170 s and 167 ± 22 s | time constant τ of MTSET modification ([3]; 30 μM MTSET co-applied with 100 μM Mor): 720 s and 719 ± 137 s | time constant τ of MTSET modification ([3]; 30 μM MTSET co-applied with 300 μM ACh): 34 s and 34 ± 12 s | reduction of ACh-evoked currents ([3]; after 100 μM MTS reagent alone): unchanged | reduction of ACh/Mor-evoked currents ([3]; after 100 μM MTS reagent alone): 32 ± 9% | reduction of degree of potentiation ([3]; after 100 μM MTS reagent alone): 31 ± 8% | decrease of Mor efficacy ([3]; after 100 μM MTSET alone): 66% | decrease in efficacy of ACh/Mor concentration-response curve [1, 15]: 50% | decrease in potency of ACh/Mor concentration-response curve [1, 15]: 3 fold | decrease in ACh efficacy (maximum response at high ACh) [1, 16]: 75% | decrease in ACh potency after MTSET/agonist co-application [1, 16]: 4.5 fold | decrease of Mor potency ([1]; four 30-sec doses): without changing the potency | reduction of maximum Mor-evoked current (efficacy) ([1]; four 30-sec doses): 75 - 80%
